Data taken from BigSolDB 2.1.

CC(C)(c1cc(Br)c(O)c(Br)c1)c1cc(Br)c(O)c(Br)c1
solubility (mole fraction)
Conditions | in ethanol | in ethyl acetate | in isopropanol | in methanol | in n-butanol | in n-butyl acetate | in n-pentanol | in n-propanol | in sec-butanol
298.15 K | 0.0511 | 0.139 | 0.0242 | 0.0499 | 0.0511 | 0.142 | 0.0567 | 0.0452 | 0.0262
303.15 K | 0.0516 | 0.139 | 0.0259 | 0.0511 | 0.0522 | 0.142 | 0.058 | 0.046 | 0.0288
308.15 K | 0.0534 | 0.141 | 0.0284 | 0.0524 | 0.0542 | 0.144 | 0.0596 | 0.0476 | 0.0321
313.15 K | 0.0558 | 0.144 | 0.031 | 0.0546 | 0.0573 | 0.146 | 0.0609 | 0.0502 | 0.0364
318.15 K | 0.0577 | 0.147 | 0.0343 | 0.0564 | 0.0602 | 0.148 | 0.0634 | 0.0522 | 0.0399
323.15 K | 0.0616 | 0.152 | 0.0381 | 0.0585 | 0.0642 | 0.151 | 0.0669 | 0.0553 | 0.045
328.15 K | 0.0642 | 0.157 | 0.0435 | 0.0615 | 0.0678 | 0.155 | 0.0705 | 0.059 | 0.0502
333.15 K | 0.0693 | 0.161 | 0.0484 | – | 0.0717 | 0.159 | 0.0752 | 0.063 | 0.056
